This passage reports IC50 results from patent US9290511B2, “Thieno-pyrimidines, useful as potassium channel inhibitors” (XENTION LIMITED, priority 2011, dated 2016).

Molecules are shown by their SMILES. Some results are limits rather than exact numbers.

The test has as its target T1, Kir3.1/3.4 (Rattus norvegicus, UniProt P48548+P63251).
T1 construct: expressed in transfected cells
T1 sequence (P63251 1-501): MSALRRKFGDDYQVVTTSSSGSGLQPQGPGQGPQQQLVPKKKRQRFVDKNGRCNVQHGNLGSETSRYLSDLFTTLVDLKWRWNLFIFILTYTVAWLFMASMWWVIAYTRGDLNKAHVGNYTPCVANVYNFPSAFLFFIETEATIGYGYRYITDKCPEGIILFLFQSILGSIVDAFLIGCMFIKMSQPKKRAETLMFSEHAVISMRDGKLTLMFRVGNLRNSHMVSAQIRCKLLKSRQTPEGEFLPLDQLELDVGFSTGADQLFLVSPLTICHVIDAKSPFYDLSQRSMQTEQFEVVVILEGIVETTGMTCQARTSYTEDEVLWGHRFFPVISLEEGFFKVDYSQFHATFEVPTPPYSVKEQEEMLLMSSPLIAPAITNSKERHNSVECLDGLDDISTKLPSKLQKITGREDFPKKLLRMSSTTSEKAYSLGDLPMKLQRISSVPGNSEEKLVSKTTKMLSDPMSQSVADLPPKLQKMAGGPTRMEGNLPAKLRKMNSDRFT
T1 sequence (P48548 1-419): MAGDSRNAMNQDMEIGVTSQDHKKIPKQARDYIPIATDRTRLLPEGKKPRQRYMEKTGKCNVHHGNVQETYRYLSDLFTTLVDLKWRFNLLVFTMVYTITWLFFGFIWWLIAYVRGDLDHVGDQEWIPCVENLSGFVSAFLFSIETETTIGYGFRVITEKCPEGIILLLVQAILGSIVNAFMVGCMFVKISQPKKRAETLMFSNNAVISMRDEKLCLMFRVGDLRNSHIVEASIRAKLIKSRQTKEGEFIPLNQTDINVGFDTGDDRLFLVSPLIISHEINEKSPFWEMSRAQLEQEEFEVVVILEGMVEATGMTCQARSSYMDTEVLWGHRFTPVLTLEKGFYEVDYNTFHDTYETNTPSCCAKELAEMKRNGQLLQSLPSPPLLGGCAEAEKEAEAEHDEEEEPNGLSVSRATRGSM
As to the kind of experiment: Kir3.1/3.4 Electrophysiology Method (manual whole-cell patch clamp). In kind it is cell-based. Particulars: Electrophysiology Method (TABLE 1). The method, then: Compound activity against the recombinant G-protein activated inward rectifier current encoded by the heterotetramer Kir3.1/3.4 was assessed using manual whole-cell patch technique. The heterotetramer forms the pore-forming channel that conducts the acetylcholine/adenosine-activated potassium current in the heart.
For whole-cell patch-clamp studies, cells (Human Embryonic Kidney 293 stably transfected with rat Kir3.1/3.4) were seeded onto glass coverslips before recordings were made. Cells were seeded in sterile 30 mm Petri dishes at a density to enable isolated cells to be selected for patch clamp experiments. The dishes were stored in a humidified, gassed (5% CO2) incubator at 37° C. until use.
Whole-cell patch-clamp recordings of membrane currents were made following gigaohm seal formation between the patch electrode and the cell using HEKA EPC-9/10 amplifiers controlled by Pulse Software (Ver8.5x/8.6×/8.7×, HEKA, Germany). Coverslips seeded with cells were placed in a recording chamber mounted on the stage of an inverted microscope. During the experiment, the cell of interest was continuously superfused with bather solution delivered via a cannula placed in close proximity to the cell to enable control of the extracellular solution environment. Only those cells with a current <−500 pA (current at −140 mV) were used for experiments. During experiments, series resistance was compensated by a minimum of 70%.
Electrophysiology voltage-step protocols and analysis of data were performed as follows. Data was sampled at 5 kHz, and filtered with a −3 dB bandwidth of 2.5 kHz. Cells were held at a voltage of −60 mV. Currents were evoked by a depolarising voltage step to +60 mV (100 ms) before a ramp-repolarisation (0.4 V·s^−1) to −140 mV (100 ms) before returning to −60 mV. The command waveform was repeatedly applied every 10 s throughout the experiment. Mean currents during 1-99% of the time at −140 mV were analysed using Pulsefit software (v8.x, HEKA, Germany). The voltage protocol was repeatedly applied to achieve a stable current baseline in bather before the test substance was superfused via the cannula in close proximity to the cell under investigation. The test substance was allowed to equilibrate during which time voltage protocol was repeatedly applied and recorded. On reaching steady-state inhibition, the cell was superfused with an identical bather solution containing zero external potassium chloride (replaced by equimolar NaCl). The identical current measurement was made in the absence of potassium to assess the passive leak at −140 mV. The leak current was subtracted from the control and steady-state drug current values. The percentage inhibition of the leak-subtracted current in the presence of test substance was calculated relative to the control leak-subtracted pre-drug value. Internal patch-pipette solution contained in mM: 110 KCl, 20 NaCl, 0.9 GTPγS, 5 Mg-ATP, 5 EGTA, 10 HEPES, pH7.2 corrected with KOH. The external superfusate composition in mM was: 150 (or 160) NaCl, 10 (or 0) KCl, 3 CaCl2, 1 MgCl, 10 HEPES, pH 7.4 corrected with NaOH.
As for `CN1CCN(c2nc(N3CCC(CNC4(CO)CCCC4)CC3)c3c(-c4ccccc4)csc3n2)CC1` [Example 113], the IC50 lay in the range of 500 to 3000 nM.

In turn, `c1ccc(-c2csc3ncnc(N4CC5CC4CC5OCCN4CCCC4)c23)cc1` (centres unmarked) [Example 284] came in with an IC50 of less than 500 nM.

`CC(C)CC(=O)Nc1sc2nc(N3CCC(COCCN4CCCC4)CC3)ncc2c1-c1ccccc1` [Example 303] came in with an IC50 of less than 500 nM.

The molecule `CNC(=O)CN(CC1CCN(c2ncnc3scc(-c4ccccc4)c23)CC1)C1CCC1` [Example 252, 2-[cyclobutyl-[[1-(5-phenylthieno[2,3-d]pyrimidin-4-yl)-4-piperidyl]methyl]amino]-N-methyl-acetamide] displayed an IC50 of 500 to 3000 nM.

`c1ccc(-c2csc3ncnc(N4CCC(OCCN5CCCC5)C4)c23)cc1` (centres unmarked) [Example 269] returned an IC50 of less than 500 nM.

On to `CN1CCC(CCNCC2CCN(c3ncnc4scc(-c5ccccc5)c34)CC2)C1` (centres unmarked) [Example 104], for which the IC50 was less than 500 nM.

The molecule `C(#Cc1ncnc2scc(-c3ccccc3)c12)COCCN1CCCC1` [Example 161, 5-Phenyl-4-[3-(2-pyrrolidinyl-1-ylethoxy)prop-1-ynyl]thieno[2,3-d]pyrimidine] had an IC50 of less than 500 nM.

The molecule `COc1ccccc1-c1csc2ncnc(N3C4CCC3CC(N(C)C3CCC3)C4)c12` (centres unmarked) [Example 350] showed an IC50 of less than 500 nM.

With `OC1CCN(CC2CCN(c3ncnc4scc(C5CCCCC5)c34)CC2)C1` (centres unmarked) [Example 200], the IC50 is less than 500 nM.

For `CN1CCC(N(C)CC2CCN(c3nc(NCC4CC4)nc4scc(-c5ccccc5)c34)CC2)C1` (centres unmarked) [Example 119], the IC50 was less than 500 nM.

Molecule `CN1CCCC1CCNCC1CN(c2ncnc3scc(-c4ccccc4)c23)C1` (centres unmarked) [Example 219] showed an IC50 of less than 500 nM.

In turn, `N[C@H]1CCCN(CC2CCN(c3ncnc4scc(-c5ccccc5)c34)CC2)C1` [Example 90, (3S)-1-[[1-(5-phenylthieno[2,3-d]pyrimidin-4-yl)-4-piperidyl]methyl]piperidin-3-amine] returned an IC50 of less than 500 nM.

`CN1CCC(N(C)CC2CCN(c3nc(N4CCC(C(N)=O)C4)nc4scc(-c5ccccc5)c34)CC2)C1` (centres unmarked) [Example 120, 1-[4-[4-[[methyl-(1-methylpyrrolidin-3-yl)amino]methyl]-1-piperidyl]-5-phenyl-thieno[2,3-d]pyrimidin-2-yl]pyrrolidine-3-carboxamide] yielded an IC50 of less than 500 nM.

Turning to `c1ccc(-c2csc3ncnc(N4CCC(CNCCC5CCCO5)CC4)c23)cc1` (centres unmarked) [Example 102], the IC50 was less than 500 nM.

As to `c1ccc(-c2csc3ncnc(N4CCC(CNCc5ccco5)CC4)c23)cc1` [Example 61, 1-(2-furyl)-N-[[1-(5-phenylthieno[2,3-d]pyrimidin-4-yl)-4-piperidyl]methyl]methanamine], the half-inhibitory concentration (IC50) is less than 500 nM.

Molecule `COCCNc1nc(N2CCC(CN(C)C3CCN(C)C3)CC2)c2c(-c3ccccc3)csc2n1` (centres unmarked) [Example 118] registered an IC50 of less than 500 nM.

For `CN(C)C(=O)c1sc2ncnc(N3C4CCC3CC(N(C)C3CCC3)C4)c2c1-c1ccccc1` (centres unmarked) [Example 347], the IC50 was less than 500 nM.

`O=C(NCCN1CCOCC1)C1CCCN(c2ncnc3scc(-c4ccccc4)c23)C1` (centres unmarked) [Example 285] came in with an IC50 of 500 to 3000 nM.

In turn, `c1ccc(-c2csc3ncnc(N4CC[C@H](COCCN5CCCC5)C4)c23)cc1` [Example 263] returned an IC50 of less than 500 nM.

For `NC(=O)C1CCN(c2nc(N3CC4CC3CO4)c3c(-c4ccccc4)csc3n2)C1` (centres unmarked) [Example 309], the IC50 is 3000 to 10000 nM.

In turn, `COCC1C[C@H]2CC[C@@H](C1)N2c1nc(OC2CC3CC2CN3)nc2sc(C(=O)N(C)C)c(-c3ccccc3)c12` (stereo partly drawn) [Example 366, 2-(2-azabicyclo[2.2.1]heptan-5-yloxy)-4-[(1S,5R)-3-(methoxymethyl)-8-azabicyclo[3.2.1]octan-8-yl]-N,N-dimethyl-5-phenyl-thieno[2,3-d]pyrimidine-6-carboxamide] returned a 50% inhibitory concentration (IC50) of 500 to 3000 nM.

Molecule `CN1CCC(N(C)CC2CCN(c3nc(N4CCC[C@@H]4C(N)=O)nc4scc(-c5ccccc5)c34)CC2)C1` (some centres unmarked) [Example 229] showed an IC50 of less than 500 nM.

On to `CC(C)C(=O)Nc1sc2nc(N3CCC(COCCN4CCCC4)CC3)ncc2c1-c1ccccc1` [Example 304], for which the IC50 was less than 500 nM.

In turn, `COCC1CCN(c2nc(NCCN(C)C)nc3scc(-c4ccccc4)c23)CC1` [Example 173] showed an IC50 of less than 500 nM.

On to `CN1CC(NCC2CCN(c3ncnc4scc(-c5ccccc5)c34)CC2)CC1=O` (centres unmarked) [Example 91, 1-methyl-4-[[1-(5-phenylthieno[2,3-d]pyrimidin-4-yl)-4-piperidyl]methylamino]pyrrolidin-2-one], for which the IC50 was 500 to 3000 nM.

`COc1ccccc1-c1csc2ncnc(N3C4CCC3CC(CNC3CCC3)C4)c12` (centres unmarked) [Example 367] registered an IC50 of less than 500 nM.

In turn, `O=[N+]([O-])c1ccc(-c2csc3ncnc(N4CCC(COCCN5CCCC5)CC4)c23)cc1` [Example 46, 5-(4-nitrophenyl)-4-[4-(2-pyrrolidin-1-ylethoxymethyl)-1-piperidyl]thieno[2,3-d]pyrimidine] returned an IC50 of less than 500 nM.

Molecule `COc1ncccc1-c1csc2ncnc(N3C4CCC3CC(N(C)C3CCC3)C4)c12` (centres unmarked) [Example 351, N-cyclobutyl-8-[5-(2-methoxy-3-pyridyl)thieno[2,3-d]pyrimidin-4-yl]-N-methyl-8-azabicyclo[3.2.1]octan-3-amine] showed an IC50 of less than 500 nM.

`CC(C)c1csc2ncnc(N3CC4CC3CC4OCCN3CC4CC3CO4)c12` (centres unmarked) [Example 292, 5-[2-[[2-(5-isopropylthieno[2,3-d]pyrimidin-4-yl)-2-azabicyclo[2.2.1]heptan-5-yl]oxy]ethyl]-2-oxa-5-azabicyclo[2.2.1]heptane] had an IC50 of 500 to 3000 nM.

Molecule `NC(=O)[C@H]1CCCN1CCOCC1C2CN(c3ncnc4scc(-c5ccc(F)cc5)c34)CC12` (stereo partly drawn) [Example 45, (2R)-1-[2-[[3-[5-(4-fluorophenyl)thieno[2,3-d]pyrimidin-4-yl]-3-azabicyclo[3.1.0]hexan-6-yl]methoxy]ethyl]pyrrolidine-2-carboxamide] registered an IC50 of less than 500 nM.

In turn, `OCCN(CCO)CC1CCN(c2ncnc3scc(C4CCCCC4)c23)CC1` [Example 201] showed a half-inhibitory concentration (IC50) of less than 500 nM.

In turn, `CN(C)CCOCC1CCN(c2nc(N3CCC(C(N)=O)C3)nc3scc(-c4ccccc4)c23)CC1` (centres unmarked) [Example 14, 1-[4-[4-(2-dimethylaminoethyloxymethyl)-1-piperidyl]-5-phenyl-thieno[2,3-d]pyrimidin-2-yl]pyrrolidine-3-carboxamide] returned an IC50 of less than 500 nM.

`CC(=O)NC1CCN(c2nc(N3CCC(CN(C)C4CCN(C)C4)CC3)c3c(-c4ccccc4)csc3n2)C1` (centres unmarked) [Example 226] showed a concentration for half-maximal inhibition (IC50) of less than 500 nM.

Molecule `CN1CCC(N(C)CC2CCN(c3nc(N4CCCC4C(N)=O)nc4scc(-c5ccccc5)c34)CC2)C1` (centres unmarked) [Example 130] registered an IC50 of 500 to 3000 nM.

For `CC(=O)N1CCN(CCOCC2CCN(c3ncnc4scc(-c5ccccc5)c34)CC2)CC1` [Example 261], the IC50 was less than 500 nM.
